In PMC3324139 (2012):

Columns and labels:
[1] = tested on: 76 mer-DNA aptamer (DNA, aptamer) CGTACGGAATTCGCTAGCCCCCCGGCAGGCCACGGCTTGGGTTGGTCCCACTGCGCGTGGATCCGAGCTCCACGTG; experiment: competitive enzyme-linked aptamer assay (ELAA); settings: sodium phosphate 10 mM, no added NaCl, no Mg2+; pH 7.2, RT; TC-HRP displaced; relative to TC = 100% at 50% B/B0; apparent
[2] = tested on: 57 mer-RNA aptamer (RNA, aptamer) GAGCCUAAAACAUACCAGAGAAAUCUGGAGAGGUGAAGAAUACGACCACCUAGGCUC; experiment: competitive enzyme-linked aptamer assay (ELAA); settings: sodium phosphate 10 mM, no added NaCl, no Mg2+; pH 7.2, RT; TC-HRP displaced; relative to TC = 100% at 50% B/B0; apparent

In the case of `CN(C)[C@@H]1C(=O)C(C(N)=O)=C(O)[C@@]2(O)C(=O)C3=C(O)c4c(O)cccc4[C@@](C)(O)[C@H]3[C@H](O)[C@@H]12`, the Cross-reactivity [1] is reported as 129.7% and the Cross-reactivity [2] is reported as 35.3%.
